From patent publication US20250313563A1, “GLYCOGEN SYNTHASE KINASE 3 INHIBITORS AND USES THEREOF” (The Broad Institute, Inc., priority 2022, published 2025)
Where two headings read alike, the source gives them in different places.

Legend:
[1] = biological target: GSK3α (GST-full length GSK3α) (Homo sapiens (Human), UniProt P49840); experiment: GSK3α TR-FRET kinase assay; assay type: biochemical
Method in brief: (§1)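 IC50s came from the normalized 665/615 TR-FRET ratio after Tb-anti-pSer641 antibody and streptavidin-d2 detection of phosphorylated biotin-glycogen synthase peptide (200 nM). ATP was 4 μM for GSK3α, 2 μM for GSK3b, or 1 mM; 1 nM enzyme, 100 min, ambient, pH 7.5, after 30-min compound preincubation.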

[2] = biological target: GSK3b (GST-full length GSK3b) (Homo sapiens (Human), UniProt P49841); experiment: GSK3b TR-FRET kinase assay; assay type: biochemical
Method in brief: as §1

[3] = 1 nM GSK3α, 4 μM ATP, 30 minute preincubation, read-out: GSK3-A TR-FRET BIOCHEMICAL (TR-FRET), IC50
[4] = 1 nM GSK3b, 2 μM ATP, 30 minute preincubation, read-out: GSK3-B TR-FRET BIOCHEMICAL (TR-FRET), IC50
[5] = 1 nM GSK3α, 4 μM ATP, 30 minute preincubation, Table 16, read-out: GSK3-A TR-FRET BIOCHEMICAL (TR-FRET)
[6] = 1 nM GSK3b, 2 μM ATP, 30 minute preincubation, Table 16, read-out: GSK3-B TR-FRET BIOCHEMICAL (TR-FRET)
[7] = read-out: GSK3-A (TR-FRET 1 mM ATP), GMean, IC50, 1 mM ATP, geometric mean
[8] = read-out: GSK3-B (TR-FRET 1 mM ATP), GMean, IC50, 1 mM ATP, geometric mean
[9] = 1 nM GSK3α, 4 μM ATP, 30 minute preincubation, Table 16, read-out: GSK3-A TR-FRET BIOCHEMICAL (TR-FRET), IC50
[10] = 1 nM GSK3b, 2 μM ATP, 30 minute preincubation, Table 16, read-out: GSK3-B TR-FRET BIOCHEMICAL (TR-FRET), IC50

GSK3b (GST-full length GSK3b), sequence (P49841 whole entry): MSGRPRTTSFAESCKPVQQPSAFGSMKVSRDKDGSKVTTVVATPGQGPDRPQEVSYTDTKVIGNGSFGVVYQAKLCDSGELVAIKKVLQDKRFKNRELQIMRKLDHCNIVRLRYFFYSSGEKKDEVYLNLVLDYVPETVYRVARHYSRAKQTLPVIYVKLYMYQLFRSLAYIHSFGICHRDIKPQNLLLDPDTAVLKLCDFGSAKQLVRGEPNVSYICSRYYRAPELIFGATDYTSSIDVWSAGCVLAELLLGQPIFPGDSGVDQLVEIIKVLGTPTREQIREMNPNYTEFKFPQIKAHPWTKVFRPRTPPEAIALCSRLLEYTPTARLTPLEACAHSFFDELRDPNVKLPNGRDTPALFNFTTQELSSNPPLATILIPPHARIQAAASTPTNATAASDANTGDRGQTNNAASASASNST
GSK3α (GST-full length GSK3α), sequence (P49840 whole entry): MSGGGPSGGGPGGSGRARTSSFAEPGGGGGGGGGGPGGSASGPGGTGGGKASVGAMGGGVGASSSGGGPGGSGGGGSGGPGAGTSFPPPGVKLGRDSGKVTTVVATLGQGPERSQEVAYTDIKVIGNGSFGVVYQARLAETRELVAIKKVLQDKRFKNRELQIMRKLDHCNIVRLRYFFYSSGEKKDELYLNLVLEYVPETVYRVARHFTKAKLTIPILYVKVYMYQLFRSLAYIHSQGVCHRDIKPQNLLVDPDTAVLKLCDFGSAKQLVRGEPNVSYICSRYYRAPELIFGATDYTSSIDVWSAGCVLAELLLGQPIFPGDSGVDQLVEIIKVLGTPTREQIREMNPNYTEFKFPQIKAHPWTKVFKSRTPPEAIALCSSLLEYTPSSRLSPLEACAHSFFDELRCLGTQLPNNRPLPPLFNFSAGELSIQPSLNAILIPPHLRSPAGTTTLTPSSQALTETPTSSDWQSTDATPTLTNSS

Row | Compound | IC50 [1, 3] [µM] | IC50 [2, 4] [µM] | IC50 [1, 5] [µM] | IC50 [2, 6] [µM] | also measured
1 | CCC1(c2cccc(-c3cn(C)nc3C)c2)C2=C(CC(C)(C)NC2=O)Nc2n[nH]cc21 (stereo not drawn) [Compound 944030] | ≤ 0.1 | ≤ 0.1 |  |  | 
2 | CC[C@]1(c2cccc(-c3ccnc4ccccc34)c2)C2=C(CC(C)(C)CC2=O)Nc2n[nH]cc21 [Compound 944031] |  |  | ≤ 0.1 | ≤ 0.1 | 
3 | CCC1(c2cccc(-c3cc(OC)ncc3F)c2)C2=C(CC(C)(C)CC2=O)Nc2n[nH]cc21 (stereo not drawn) [Compound 944032] |  |  | ≤ 0.1 | ≤ 0.1 | IC50 [1, 7]: 0.1 to 1 µM; IC50 [2, 8]: 1 to 5 µM
4 | CCC1(c2cccc(-c3ccnc4c3CCCC4)c2)C2=C(CC(C)(C)CC2=O)Nc2n[nH]cc21 (stereo not drawn) [Compound 944033] |  |  | ≤ 0.1 | ≤ 0.1 | IC50 [1, 7]: ≤ 0.1 µM; IC50 [2, 8]: 0.1 to 1 µM
5 | CC[C@@]1(c2cccc(-c3cc(OC)ncc3F)c2)C2=C(CC(C)(C)CC2=O)Nc2n[nH]cc21 [Compound 944035] |  |  | 1 to 5 | > 5 | 
6 | CC[C@@]1(c2cccc(-c3ccnc4c3CCCC4)c2)C2=C(CC(C)(C)CC2=O)Nc2n[nH]cc21 [Compound 944036] |  |  | 1 to 5 | > 5 | 
7 | CC1(C)CC(=O)C2=C(C1)Nc1n[nH]cc1C21COC2(CN(C(=O)C3CCC4(CC3)COC4)C2)C1 (stereo not drawn) [Compound 944075] | ≤ 0.1 | 0.1 to 1 |  |  | 
8 | CCC1(c2cccc(N(C)c3nccc(C)n3)c2)C2=C(CC(C)(C)CC2=O)Nc2n[nH]cc21 (stereo not drawn) [Compound 945328] |  |  | ≤ 0.1 | ≤ 0.1 | IC50 [1, 7]: ≤ 0.1 µM; IC50 [2, 8]: 0.1 to 1 µM
9 | CC[C@]1(c2cccc(N(C)c3nccc(C)n3)c2)C2=C(CC(C)(C)CC2=O)Nc2n[nH]cc21 [Compound 945329] |  |  | 0.1 to 1 | 1 to 5 | 
10 | CCC1(c2cccc(C(F)(F)F)c2)C2=C(CC(c3ccccc3)NC2=O)Nc2n[nH]cc21 (stereo not drawn) [Compound 945363] | 1 to 5 | > 5 |  |  | 
11 | CC[C@]1(c2cccc(C(F)(F)F)c2)C2=C(C[C@H](c3ccccc3)NC2=O)Nc2n[nH]cc21 [Compound 945364] | > 5 | > 5 |  |  | 
12 | CCC1(c2cccc(C(F)(F)F)c2)C2=C(CN(C)C2=O)Nc2n[nH]cc21 (stereo not drawn) [Compound 945367] | 0.1 to 1 | 1 to 5 |  |  | 
13 | CC[C@]1(c2cccc(C(F)(F)F)c2)C2=C(CN(C)C2=O)Nc2n[nH]cc21 [Compound 945368] | > 5 | > 5 |  |  | 
14 | CC[C@@]1(c2cccc(C(F)(F)F)c2)C2=C(CN(c3ccccc3)C2=O)Nc2n[nH]cc21 [Compound 945376] | > 5 | > 5 |  |  | 
15 | CCC1(c2cccc(C(F)(F)F)c2)C2=C(CN(c3ccccc3)C2=O)Nc2n[nH]cc21 (stereo not drawn) [Compound 945377] | 0.1 to 1 | 1 to 5 |  |  | 
16 | CCC1(c2cccc(C(F)(F)F)c2)C2=C(Nc3n[nH]cc31)C(C)NC2=O (stereo not drawn) [Compound 945378] | ≤ 0.1 | 0.1 to 1 |  |  | 
17 | CCC1(c2cccc(C(F)(F)F)c2)C2=C(Nc3n[nH]cc31)C(C)NC2=O (stereo not drawn) [Compound 945379] | 0.1 to 1 | 1 to 5 |  |  | 
18 | CC[C@]1(c2cccc(C(F)(F)F)c2)C2=C(Nc3n[nH]cc31)[C@@H](C)NC2=O [Compound 945380] | > 5 | > 5 |  |  | 
19 | CC[C@]1(c2cccc(C(F)(F)F)c2)C2=C(Nc3n[nH]cc31)[C@H](C)NC2=O [Compound 945381] | > 5 | > 5 |  |  | 
20 | CCC1(c2cccc(C(F)(F)F)c2)C2=C(Nc3n[nH]cc31)C(C)CNC2=O (stereo not drawn) [Compound 945382] | ≤ 0.1 | 0.1 to 1 |  |  | 
21 | CC[C@@]1(c2cccc(C(F)(F)F)c2)C2=C(Nc3n[nH]cc31)[C@H](C)CNC2=O [Compound 945383] | ≤ 0.1 | 0.1 to 1 |  |  | 
22 | CCC1(c2cccc(C(F)(F)F)c2)C2=C(Nc3n[nH]cc31)C(C)CNC2=O (stereo not drawn) [Compound 945384] | 1 to 5 | > 5 |  |  | 

Row | Compound | IC50 [1, 3] [µM] | IC50 [2, 4] [µM] | IC50 [1, 5] [µM] | IC50 [2, 6] [µM] | also measured
23 | CC[C@]1(c2cccc(C(F)(F)F)c2)C2=C(Nc3n[nH]cc31)[C@H](C)CNC2=O [Compound 945385] | > 5 | > 5 |  |  | 
24 | CC1(C)CC(=O)C2=C(C1)Nc1n[nH]cc1C21CCC(C(=O)N2CCCC2)CC1 (stereo not drawn) [Compound 945394] |  |  | 0.1 to 1 | 1 to 5 | 
25 | CN(C)C(=O)C1CCC2(CC1)C1=C(CC(C)(C)CC1=O)Nc1n[nH]cc12 (stereo not drawn) [Compound 945395] |  |  |  |  | IC50 [1, 9]: 0.1 to 1 µM; IC50 [2, 10]: 1 to 5 µM
26 | CC1(C)CC(=O)C2=C(C1)Nc1n[nH]cc1C21CCC(C(=O)N2CCCC2)CC1 (stereo not drawn) [Compound 945396] |  |  | 0.1 to 1 | 0.1 to 1 | 
27 | CNC(=O)C1CCC2(CC1)C1=C(CC(C)(C)CC1=O)Nc1n[nH]cc12 (stereo not drawn) [Compound 945397] |  |  | 0.1 to 1 | 0.1 to 1 | 
28 | CC1(C)CC(=O)C2=C(C1)Nc1n[nH]cc1C21COC2(CN(C(=O)C3CCOCC3)C2)C1 (stereo not drawn) [Compound 945407] | ≤ 0.1 | 0.1 to 1 |  |  | 
29 | CCC1(c2cccc(-c3ccnc(C)c3OC)c2)C2=C(CC(C)(C)CC2=O)Nc2n[nH]cc21 (stereo not drawn) [Compound 945458] |  |  | ≤ 0.1 | ≤ 0.1 | 
30 | CCC1(c2cccc(-c3cn[nH]c3)c2)C2=C(CC(C)(C)NC2=O)Nc2n[nH]c(C)c21 (stereo not drawn) [Compound 945459] | ≤ 0.1 | ≤ 0.1 |  |  | 
31 | CCC1(c2cccc(-c3cn(C)nc3C)c2)C2=C(CC(C)(C)NC2=O)Nc2n[nH]c(C)c21 (stereo not drawn) [Compound 945460] | ≤ 0.1 | ≤ 0.1 |  |  | 
32 | CCC1(c2cccc(-c3ccncc3C)c2)C2=C(CC(C)(C)NC2=O)Nc2n[nH]cc21 (stereo not drawn) [Compound 945461] | ≤ 0.1 | ≤ 0.1 |  |  | 
33 | CCC1(c2cccc(-c3c(C)nn(C)c3C)c2)C2=C(CC(C)(C)NC2=O)Nc2n[nH]cc21 (stereo not drawn) [Compound 945462] | ≤ 0.1 | ≤ 0.1 |  |  | 
34 | CCC1(c2cccc(S(=O)(=O)C(C)C)c2)C2=C(CC(C)(C)NC2=O)Nc2n[nH]cc21 (stereo not drawn) [Compound 945464] | ≤ 0.1 | ≤ 0.1 |  |  | 
35 | CCC1(c2cccc(N(C)C3CC3)c2)C2=C(CC(C)(C)CC2=O)Nc2n[nH]cc21 (stereo not drawn) [Compound 945466] |  |  | 0.1 to 1 | 1 to 5 | 
36 | CCC1(c2cccc(-c3cc(C)ncc3OC)c2)C2=C(CC(C)(C)CC2=O)Nc2n[nH]cc21 (stereo not drawn) [Compound 945468] |  |  | ≤ 0.1 | 0.1 to 1 | 
37 | CC[C@@]1(c2cccc(-c3ccncc3CO)c2)C2=C(CC(C)(C)CC2=O)Nc2n[nH]cc21 [Compound 945469] |  |  | ≤ 0.1 | ≤ 0.1 | 
38 | CC[C@]1(c2cccc(-c3cn(C)nc3C)c2)C2=C(CC(C)(C)NC2=O)Nc2n[nH]cc21 [Compound 945470] | ≤ 0.1 | ≤ 0.1 |  |  | IC50 [1, 7]: 0.1 to 1 µM; IC50 [2, 8]: 1 to 5 µM
39 | CC[C@]1(c2cccc(-c3ccncc3OC)c2)C2=C(CC(C)(C)CC2=O)Nc2n[nH]cc21 [Compound 945471] |  |  | 1 to 5 | 1 to 5 | IC50 [1, 7]: > 5 µM; IC50 [2, 8]: > 5 µM
40 | CC[C@]1(c2cccc(N(C)c3ccc(C(F)(F)F)nc3)c2)C2=C(CC(C)(C)CC2=O)Nc2n[nH]cc21 [Compound 945474] |  |  | ≤ 0.1 | 0.1 to 1 | 
41 | CC1(C)CC(=O)C2=C(C1)Nc1n[nH]cc1C21CN(c2ccccn2)C1 [Compound 945477] |  |  |  |  | IC50 [1, 9]: 1 to 5 µM; IC50 [2, 10]: 1 to 5 µM
42 | CC1(C)CC(=O)C2=C(C1)Nc1n[nH]cc1C21CN(c2ccc(C(F)(F)F)cc2)C1 [Compound 945478] |  |  | 0.1 to 1 | 0.1 to 1 | 
43 | CC[C@@]1(c2cccc(-c3cn(C)nc3C)c2)C2=C(CC(C)(C)NC2=O)Nc2n[nH]cc21 [Compound 945480] | 1 to 5 | > 5 |  |  | 
